{"source": "patent US7138361B2", "about": "“Herbicidal heterocycles” (E. I. du Pont de Nemours and Company, priority 2000, dated 2006)", "type_in_all_cases": "in vivo", "key": {"[1]": {"system": "barnyardgrass (Echinochloa crus-galli)", "test": "Test C flooded paddy test", "settings": "for Barnyardgrass plant response rating: Flooded Paddy, scale 0 to 100, 0 no effect, 100 complete control; for Plant response rating, Barnyardgrass: flooded paddy test, scale 0 to 100 (0 no effect, 100 complete control)", "how_it_was_run": "(§1)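 Rice and three paddy weeds were grown to the 2-leaf stage under flooded conditions, then treated and kept in a greenhouse for 12–14 days. Response was rated visually against untreated controls on a 0–100 scale, where 100 is complete control.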"}, "[2]": {"system": "smallflower flatsedge (Cyperus difformis)", "test": "Test C flooded paddy test", "settings": "for Flatsedge plant response rating: Flooded Paddy, scale 0 to 100, 0 no effect, 100 complete control; for Plant response rating, Flatsedge: flooded paddy test, scale 0 to 100 (0 no effect, 100 complete control)", "how_it_was_run": "as §1"}, "[3]": {"system": "duck salad (Heteranthera limosa)", "test": "Test C flooded paddy test", "settings": "for Ducksalad plant response rating: Flooded Paddy, scale 0 to 100, 0 no effect, 100 complete control; for Plant response rating, Ducksalad: flooded paddy test, scale 0 to 100 (0 no effect, 100 complete control)", "how_it_was_run": "as §1"}, "rice (Oryza saliva) [4]": {"system": "rice (Oryza saliva)", "test": "Test C flooded paddy test", "settings": "for Rice plant response rating: Flooded Paddy, scale 0 to 100, 0 no effect, 100 complete control; for Plant response rating, Rice: flooded paddy test, scale 0 to 100 (0 no effect, 100 complete control)", "how_it_was_run": "as §1"}, "[5]": {"system": "lambsquarters (Chenopodium album)", "test": "Test B preemergence", "how_it_was_run": "(§2)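 Greenhouse test: chemicals are formulated in a surfactant-containing non-phytotoxic solvent and applied either preemergence to planted seeds or postemergence to plants 2 to 18 cm tall. Response is rated visually versus controls after 13 to 15 days, 0 meaning no effect and 100 complete control.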"}, "corn (Zea mays) [6]": {"system": "corn (Zea mays)", "test": "Test B preemergence", "how_it_was_run": "as §2"}, "[7]": {"system": "barnyardgrass (Echinochloa crus-galli)", "test": "Test B preemergence", "how_it_was_run": "as §2"}, "[8]": {"system": "velvetleaf (Abutilon theophrasti)", "test": "Test B preemergence", "how_it_was_run": "as §2"}, "[9]": {"system": "giant foxtail (Setaria faberii)", "test": "Test B preemergence", "how_it_was_run": "as §2"}, "[10]": {"system": "crabgrass (Digitaria sanguinalis)", "test": "Test B preemergence", "how_it_was_run": "as §2"}, "[11]": {"system": "cocklebur (Xanthium strumarium)", "test": "Test B preemergence", "how_it_was_run": "as §2"}, "[12]": {"system": "morning glory (Ipomoea hederacea)", "test": "Test B preemergence", "how_it_was_run": "as §2"}, "[13]": {"system": "pigweed (Amaranthus retroflexus)", "test": "Test B preemergence", "how_it_was_run": "as §2"}, "[14]": {"system": "Surinam grass (Brachiaria decumbens)", "test": "Test B preemergence", "how_it_was_run": "as §2"}, "rice (Oryza saliva) [15]": {"system": "rice (Oryza saliva)", "test": "Test B preemergence", "how_it_was_run": "as §2"}, "[16]": {"system": "blackgrass (Alopecurus myosuroides)", "test": "Test B postemergence", "how_it_was_run": "as §2"}, "[17]": {"system": "lambsquarters (Chenopodium album)", "test": "Test B postemergence", "how_it_was_run": "as §2"}, "corn (Zea mays) [18]": {"system": "corn (Zea mays)", "test": "Test B postemergence", "how_it_was_run": "as §2"}, "[19]": {"system": "barnyardgrass (Echinochloa crus-galli)", "test": "Test B postemergence", "how_it_was_run": "as §2"}, "wild oat (Avena fatua)": {"system": "wild oat (Avena fatua)", "test": "Test B postemergence", "how_it_was_run": "as §2"}, "[20]": {"system": "velvetleaf (Abutilon theophrasti)", "test": "Test B postemergence", "how_it_was_run": "as §2"}, "[21]": {"system": "wheat (Triticum aestivum)", "test": "Test B postemergence", "how_it_was_run": "as §2"}, "[22]": {"system": "giant foxtail (Setaria faberii)", "test": "Test B postemergence", "how_it_was_run": "as §2"}, "[23]": {"system": "crabgrass (Digitaria sanguinalis)", "test": "Test B postemergence", "how_it_was_run": "as §2"}, "[24]": {"system": "cocklebur (Xanthium strumarium)", "test": "Test B postemergence", "how_it_was_run": "as §2"}, "[25]": {"system": "morning glory (Ipomoea hederacea)", "test": "Test B postemergence", "how_it_was_run": "as §2"}, "[26]": {"system": "pigweed (Amaranthus retroflexus)", "test": "Test B postemergence", "how_it_was_run": "as §2"}, "[27]": {"system": "Surinam grass (Brachiaria decumbens)", "test": "Test B postemergence", "how_it_was_run": "as §2"}, "[28]": {"settings": "Preemergence, Rate 500 g/ha, scale 0 to 100, 0 no effect, 100 complete control"}, "[29]": {"settings": "preemergence, Rate 125 g/ha, scale of 0 to 100 where 0 is no effect and 100 is complete control, 13 to 15 days"}, "[30]": {"settings": "Rate 125 g/ha, scale 0 to 100, 0 no effect, 100 complete control"}, "[31]": {"settings": "Rate 500 g/ha, scale 0 to 100, 0 is no effect, 100 is complete control, 13 to 15 days"}}}
{"smiles": "CCCCC(CCCC)c1ccn(C2OCN(c3cccc(OC(F)(F)F)c3)C2=O)n1", "note": "(stereo not shown) [Compound 113]", "values": [{"measurement": "Barnyardgrass plant response rating", "setting": "[1]; Rate 250 g/ha", "value": 0}, {"measurement": "Barnyardgrass plant response rating", "setting": "[1]; Rate 500 g/ha", "value": 0}, {"measurement": "Plant response rating, Barnyardgrass", "setting": "[1]; Rate 62 g/ha", "value": 0}, {"measurement": "Plant response rating, Barnyardgrass", "setting": "[1]; Rate 125 g/ha", "value": 0}, {"measurement": "Flatsedge plant response rating", "setting": "[2]; Rate 250 g/ha", "value": 0}, {"measurement": "Flatsedge plant response rating", "setting": "[2]; Rate 500 g/ha", "value": 0}, {"measurement": "Plant response rating, Flatsedge", "setting": "[2]; Rate 62 g/ha", "value": 0}, {"measurement": "Plant response rating, Flatsedge", "setting": "[2]; Rate 125 g/ha", "value": 0}, {"measurement": "Ducksalad plant response rating", "setting": "[3]; Rate 250 g/ha", "value": 0}, {"measurement": "Ducksalad plant response rating", "setting": "[3]; Rate 500 g/ha", "value": 0}, {"measurement": "Plant response rating, Ducksalad", "setting": "[3]; Rate 62 g/ha", "value": 0}, {"measurement": "Plant response rating, Ducksalad", "setting": "[3]; Rate 125 g/ha", "value": 0}, {"measurement": "Rice plant response rating", "setting": "rice (Oryza saliva) [4]; Rate 250 g/ha", "value": 0}, {"measurement": "Rice plant response rating", "setting": "rice (Oryza saliva) [4]; Rate 500 g/ha", "value": 0}, {"measurement": "Plant response rating, Rice", "setting": "rice (Oryza saliva) [4]; Rate 62 g/ha", "value": 0}, {"measurement": "Plant response rating, Rice", "setting": "rice (Oryza saliva) [4]; Rate 125 g/ha", "value": 0}, {"measurement": "Plant response rating, Lambsquarters", "setting": "[5]; [28]", "value": 0}, {"measurement": "Plant response rating, Lambsquarters", "setting": "[5]; [29]", "value": 0}, {"measurement": "Plant response rating, Corn", "setting": "corn (Zea mays) [6]; [28]", "value": 0}, {"measurement": "Plant response rating, Corn", "setting": "corn (Zea mays) [6]; [29]", "value": 0}, {"measurement": "Plant response rating, Barnyardgrass", "setting": "[7]; [28]", "value": 0}, {"measurement": "Plant response rating, Barnyardgrass", "setting": "[7]; [29]", "value": 0}, {"measurement": "Plant response rating, Velvetleaf", "setting": "[8]; [28]", "value": 0}, {"measurement": "Plant response rating, Velvetleaf", "setting": "[8]; [29]", "value": 0}, {"measurement": "Plant response rating, Foxtail, Giant", "setting": "[9]; [28]", "value": 0}, {"measurement": "Plant response rating, Foxtail, Giant", "setting": "[9]; [29]", "value": 0}, {"measurement": "Plant response rating, Crabgrass", "setting": "[10]; [28]", "value": 0}, {"measurement": "Plant response rating, Crabgrass", "setting": "[10]; [29]", "value": 0}, {"measurement": "Plant response rating, Cocklebur", "setting": "[11]; [28]", "value": 0}, {"measurement": "Plant response rating, Cocklebur", "setting": "[11]; [29]", "value": 0}, {"measurement": "Plant response rating, Morningglory", "setting": "[12]; [28]", "value": 0}, {"measurement": "Plant response rating, Morningglory", "setting": "[12]; [29]", "value": 0}, {"measurement": "Plant response rating, Pigweed", "setting": "[13]; [28]", "value": 0}, {"measurement": "Plant response rating, Pigweed", "setting": "[13]; [29]", "value": 0}, {"measurement": "Plant response rating, Surinam grass", "setting": "[14]; [28]", "value": 0}, {"measurement": "Plant response rating, Surinam grass", "setting": "[14]; [29]", "value": 0}, {"measurement": "Plant response rating, Rice", "setting": "rice (Oryza saliva) [15]; [28]", "value": 0}, {"measurement": "Plant response rating, Rice", "setting": "rice (Oryza saliva) [15]; [29]", "value": 0}, {"measurement": "Plant response rating, Blackgrass", "setting": "[16]; [30]", "value": 0}, {"measurement": "Plant response rating, Blackgrass", "setting": "[16]; [31]", "value": 0}, {"measurement": "Plant response rating, Lambsquarters", "setting": "[17]; [30]", "value": 30}, {"measurement": "Plant response rating, Lambsquarters", "setting": "[17]; [31]", "value": 100}, {"measurement": "Plant response rating, Corn", "setting": "corn (Zea mays) [18]; [30]", "value": 0}, {"measurement": "Plant response rating, Corn", "setting": "corn (Zea mays) [18]; [31]", "value": 0}, {"measurement": "Plant response rating, Barnyardgrass", "setting": "[19]; [30]", "value": 0}, {"measurement": "Plant response rating, Barnyardgrass", "setting": "[19]; [31]", "value": 0}, {"measurement": "Plant response rating, Wild Oat", "setting": "wild oat (Avena fatua); [30]", "value": 40}, {"measurement": "Plant response rating, Wild Oat", "setting": "wild oat (Avena fatua); [31]", "value": 40}, {"measurement": "Plant response rating, Velvetleaf", "setting": "[20]; [30]", "value": 0}, {"measurement": "Plant response rating, Velvetleaf", "setting": "[20]; [31]", "value": 0}, {"measurement": "Plant response rating, Wheat", "setting": "[21]; [30]", "value": 30}, {"measurement": "Plant response rating, Wheat", "setting": "[21]; [31]", "value": 30}, {"measurement": "Plant response rating, Foxtail, Giant", "setting": "[22]; [30]", "value": 0}, {"measurement": "Plant response rating, Foxtail, Giant", "setting": "[22]; [31]", "value": 20}, {"measurement": "Plant response rating, Crabgrass", "setting": "[23]; [30]", "value": 40}, {"measurement": "Plant response rating, Crabgrass", "setting": "[23]; [31]", "value": 40}, {"measurement": "Plant response rating, Cocklebur", "setting": "[24]; [30]", "value": 0}, {"measurement": "Plant response rating, Cocklebur", "setting": "[24]; [31]", "value": 70}, {"measurement": "Plant response rating, Morningglory", "setting": "[25]; [30]", "value": 0}, {"measurement": "Plant response rating, Morningglory", "setting": "[25]; [31]", "value": 30}, {"measurement": "Plant response rating, Pigweed", "setting": "[26]; [30]", "value": 100}, {"measurement": "Plant response rating, Pigweed", "setting": "[26]; [31]", "value": 100}, {"measurement": "Plant response rating, Surinam grass", "setting": "[27]; [30]", "value": 0}, {"measurement": "Plant response rating, Surinam grass", "setting": "[27]; [31]", "value": 0}]}
